Laboratory results from patent publication US8541670B2, “Compositions and methods for inhibiting tumor cell growth” (priority 2007, dated 2013).
Where no end group is shown, it is not given here. red fluorescent dye = not defined here

Key:
p70S6K = biological target: T1, p70S6K (Homo sapiens, UniProt P23443); test: Cell-based kinase assay, phosphorylation of intracellular substrate (Ser-235/236 S6)
T1 construct: endogenous in cells
Method: (§1) As a specific substrate, the phosphorylation level of GSK-3[…] at Ser-9 was also evaluated. […] The decrease was specific to the AKT phosphorylation site on GSK-3[…] at Ser-9, since a change in the phosphorylation level of GSK-3[…] at Tyr-216 or GSK-3[…] at Tyr-279 was not observed. Moreover, the in vivo reduction of the phosphorylation of AKT substrates was more obvious at the injection site, since a significant change in the phosphorylation of AKT substrates in the frontal cortex or cerebellum between the two hemispheres was not observed. […] To test the specificity/selectivity of ZaTa as the inhibitor of AKT1 versus the other major kinases, a series of in vitro kinase assays was performed at IC50 for AKT1 and at ten times higher concentrations. […]
(§2) Phosphorylation sites for kinases analyzed herein included Ser-235/236 S6 (a substrate for p70S6K), Tyr-207 CRKL (a substrate for Abl; Zipfel, et al. (2004) supra), Ser-241 PDK1 (a substrate for PI3K), Tyr-1022/1023 JAK1 (a substrate for JAK3; Wang, et al. (2003) supra), Ser-421 Huntingtin (a substrate for SGK; Rangone, et al. (2004) supra), Tyr-783 PLC (a substrate for TrkB; Middlemas, et al. (1994) supra), and Ser-338 cRaf (a substrate for PAK3; King, et al. (1998) supra).

AKT-PKAc complex = AKT-PKAc complex (Mus musculus, UniProt P31750); test: Co-immunoprecipitation of AKT-PKAc complex in N2a cells; assay type: cell-based; design: Neuroblastoma 2a (N2a) neurons expressing an endogenous level of AKT and PKAc; endogenous in cells; host or cells: N2a neuroblastoma cells; conditions: 24-hour treatment
Method: Accordingly, the stability and phenotypic consequences of the AKT-PKAc complex was also analyzed in cultured neurons. N2a cells were treated with vehicle, ZaTa or control peptide for 24 hours. Media was removed after the 24-hour treatment and an equal number of cells from each treatment group was either cultured for another 24 hours without treatment, or lysed and subjected to immunoprecipitation with an antibody against AKT. Those cells cultured for another 24 hours were also harvested and subjected to immunoprecipitation. In parallel, the number of individual neurons with neurites was counted. […] Live images of N2a neurons were captured following treatment with vehicle or ZaTa (2 or 5 μM). […] ZaTa-mediated changes included a progressive loss of neurites, inhibition of new neurite formation, loss of cell motility, as well as formation of large cell colonies.

TrkB = TrkB (Homo sapiens, UniProt Q16620); test: Cell-based kinase assay, phosphorylation of intracellular substrate (Tyr-783 PLC)
Method: as §1, §2

JAK3 = biological target: T2, JAK3 (Homo sapiens, UniProt P52333); test: Cell-based kinase assay, phosphorylation of intracellular substrate (Tyr-1022/1023 JAK1)
T2 construct: endogenous in cells
T2 sequence (P52333 1-1124): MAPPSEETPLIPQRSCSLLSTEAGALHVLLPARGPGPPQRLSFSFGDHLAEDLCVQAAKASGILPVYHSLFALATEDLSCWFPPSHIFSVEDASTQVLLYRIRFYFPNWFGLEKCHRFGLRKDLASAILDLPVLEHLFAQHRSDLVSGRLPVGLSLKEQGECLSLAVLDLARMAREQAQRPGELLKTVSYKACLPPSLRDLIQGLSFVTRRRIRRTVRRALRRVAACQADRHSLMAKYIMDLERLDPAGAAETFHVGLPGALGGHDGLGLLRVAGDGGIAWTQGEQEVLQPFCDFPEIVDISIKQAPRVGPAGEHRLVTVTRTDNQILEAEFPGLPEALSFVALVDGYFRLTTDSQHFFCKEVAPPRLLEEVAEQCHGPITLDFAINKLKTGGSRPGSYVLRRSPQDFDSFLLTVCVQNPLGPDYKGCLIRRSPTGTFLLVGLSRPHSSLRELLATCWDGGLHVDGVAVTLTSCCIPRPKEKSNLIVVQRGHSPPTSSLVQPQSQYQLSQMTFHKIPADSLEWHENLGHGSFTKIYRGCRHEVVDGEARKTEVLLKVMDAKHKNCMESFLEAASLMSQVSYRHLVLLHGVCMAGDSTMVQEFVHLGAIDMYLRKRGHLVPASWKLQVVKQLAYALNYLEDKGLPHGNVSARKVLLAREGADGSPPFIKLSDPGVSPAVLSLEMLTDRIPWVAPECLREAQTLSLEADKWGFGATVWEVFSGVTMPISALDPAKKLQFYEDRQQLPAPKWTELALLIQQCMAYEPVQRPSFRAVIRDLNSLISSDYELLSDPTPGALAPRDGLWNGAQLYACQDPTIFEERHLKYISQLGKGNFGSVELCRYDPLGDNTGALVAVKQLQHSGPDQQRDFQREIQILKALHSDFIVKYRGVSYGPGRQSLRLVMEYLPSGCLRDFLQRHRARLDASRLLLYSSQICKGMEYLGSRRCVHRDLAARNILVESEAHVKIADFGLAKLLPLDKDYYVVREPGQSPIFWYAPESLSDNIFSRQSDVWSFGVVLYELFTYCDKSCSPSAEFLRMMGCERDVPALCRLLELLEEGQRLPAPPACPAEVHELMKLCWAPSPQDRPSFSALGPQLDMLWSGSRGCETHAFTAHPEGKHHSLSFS
Method: as §1, §2

Sequence of AKT-PKAc complex (P31750 whole entry, one chain of several): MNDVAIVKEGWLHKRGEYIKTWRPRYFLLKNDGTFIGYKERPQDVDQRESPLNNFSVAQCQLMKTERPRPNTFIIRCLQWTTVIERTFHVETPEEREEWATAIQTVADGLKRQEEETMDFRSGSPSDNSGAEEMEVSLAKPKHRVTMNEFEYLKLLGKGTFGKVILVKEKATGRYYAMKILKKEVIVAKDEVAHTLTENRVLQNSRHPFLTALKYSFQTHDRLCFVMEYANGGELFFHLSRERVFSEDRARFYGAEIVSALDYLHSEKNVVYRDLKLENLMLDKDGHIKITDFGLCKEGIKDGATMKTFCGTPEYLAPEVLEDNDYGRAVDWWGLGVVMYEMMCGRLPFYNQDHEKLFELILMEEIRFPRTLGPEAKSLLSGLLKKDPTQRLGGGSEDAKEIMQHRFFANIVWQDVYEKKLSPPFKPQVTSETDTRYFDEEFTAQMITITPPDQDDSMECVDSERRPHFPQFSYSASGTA
T1 sequence (P23443 whole entry): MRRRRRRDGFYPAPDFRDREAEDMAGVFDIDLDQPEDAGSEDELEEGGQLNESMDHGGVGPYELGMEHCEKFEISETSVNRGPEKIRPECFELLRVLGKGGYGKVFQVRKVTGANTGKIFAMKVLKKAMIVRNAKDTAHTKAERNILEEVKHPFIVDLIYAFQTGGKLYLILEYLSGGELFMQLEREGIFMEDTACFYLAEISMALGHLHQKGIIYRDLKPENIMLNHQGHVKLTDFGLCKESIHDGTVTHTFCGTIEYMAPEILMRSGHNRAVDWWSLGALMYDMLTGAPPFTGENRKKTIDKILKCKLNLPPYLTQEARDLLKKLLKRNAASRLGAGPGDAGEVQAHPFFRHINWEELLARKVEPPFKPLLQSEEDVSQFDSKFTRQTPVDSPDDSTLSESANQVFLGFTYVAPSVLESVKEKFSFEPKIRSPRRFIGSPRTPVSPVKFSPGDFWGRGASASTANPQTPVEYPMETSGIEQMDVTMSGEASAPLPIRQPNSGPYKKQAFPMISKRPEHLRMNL

Substance	inhibition of p70S6K in cells (p70S6K)	amount of PKAc in physical contact with AKT, N2a cells (AKT-PKAc complex)	inhibition of TrkB in cells (TrkB)	inhibition of JAK3 in cells (JAK3)
AKRVKGRTWTLCGTPEY [ZaTa]	could inhibit p70S6K	reduced the amount of PKAc in physical contact with AKT		
labeled ZaTa: ZaTa peptide labeled with a red fluorescent dye at its N-terminus ({red fluorescent dye}-AKRVKGRTWTLCGTPEY; reading uncertain)			did not cause inhibition	did not cause inhibition
